US20220378789A1, “METHODS OF ADMINISTERING ELAGOLIX IN ASSOCIATION WITH ARTIFICIAL REPRODUCTIVE TECHNOLOGIES” (priority 2021, published 2022)
Non-standard residues stand in square brackets, D forms with d. Residues, ends and D or L forms follow the SMILES beside them. d(hArg(Et2)) = CCN=C(NCC)NCCCC[C@@H](N)C(=O)O; hArg(Et2) = CCN=C(NCC)NCCCC[C@H](N)C(=O)O; dPhe(4-Cl) = N[C@H](Cc1ccc(Cl)cc1)C(=O)O; d2Nal = N[C@H](Cc1ccc2ccccc2c1)C(=O)O; d3Pal = N[C@H](Cc1cccnc1)C(=O)O

Assays:
GnRH receptor [1] = target: T1, GnRH receptor (Homo sapiens, UniProt P30968); experiment: Cohort study of oocyte donors in an assisted reproductive technology cycle: ovulation suppression during ovarian stimulation; type: in vivo; details: for premature ovulation: Elagolix 200 mg PO QHS vs Ganirelix 250 mcg SQ QHS, 75 donors per group; for Avg. Peak Estradiol / Avg. Peak LH / Avg. Peak Progesterone / Days of Stimulation / Avg. Matures Oocytes / Avg. Oocytes / Avg. Cum GN Dose: group mean; for Avg. Matures Oocytes: mature oocytes at retrieval; for Avg. Oocytes: oocytes retrieved; for Avg. Cum GN Dose: total gonadotropins consumed per cycle
T1 construct: from tissue; host or cells: anterior pituitary gland of the oocyte donors (in vivo)
T1 sequence (P30968 1-328): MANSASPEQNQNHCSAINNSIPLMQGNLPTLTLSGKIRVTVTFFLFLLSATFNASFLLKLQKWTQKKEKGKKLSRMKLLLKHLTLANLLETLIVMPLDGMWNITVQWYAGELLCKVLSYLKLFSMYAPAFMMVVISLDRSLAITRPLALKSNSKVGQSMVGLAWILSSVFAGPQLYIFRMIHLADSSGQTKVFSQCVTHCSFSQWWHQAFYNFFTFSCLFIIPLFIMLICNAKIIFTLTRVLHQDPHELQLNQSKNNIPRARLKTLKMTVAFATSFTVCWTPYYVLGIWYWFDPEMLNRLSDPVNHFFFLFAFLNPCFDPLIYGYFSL
Protocol: An example of a method of the present disclosure includes a Western IRB approved (WIRB® Protocol #20191163) cohort study of 75 oocyte donors undergoing an assisted reproductive technology cycle receiving Elagolix 200 mg PO QHS for ovulation suppression compared to 75 historical donors given Ganirelix 250 mcg SQ QHS. Ovarian stimulation involved 10 days of oral contraceptive pretreatment. A recombinant FSH (Gonal F) starting dosage was based on donor age, AMH and BMI. 20 U HCG addback was given throughout the cycle with antagonists administered with a lead follicle of greater than 14 mm. […] Secondary outcomes are the number of mature oocytes at oocyte retrieval, the maximum estradiol level, the total amount of gonadotropins consumed, and the number of injections and patient cost.
The study medication was an orally bioavailable GnRH antagonist marketed by ABBVIE under the brand name ORILISSA® (Elagolix). The 200 mg dose was administered orally with once daily dosing.
A study comprised 75 oocyte donors from whom data for 75 assisted reproductive technology cycles over the course of a two-year period was collected. Upon completion of data collection, a treatment group and an age and weight-matched control group were compared and assessed on the basis of demographic data, health history, ovarian reserve, and information regarding their ovarian stimulation cycles using Pearson χ2 and Student's t-tests. The primary outcome—premature ovulation rate—was evaluated using Chi squared tests. The secondary outcomes—number of mature oocytes, the maximum estradiol level, and the total amount of gonadotropins consumed—were compared using Student's t-tests.
Protocol for Oocyte Donation with Elagolix for Ovulation Suppression 1. Prospective donor accepted into FDA-accredited egg donation program after successful completion of screening and the signing of the medical consent forms. 2. Oocyte donor given opportunity to volunteer to participate in the study. Oocyte donor given an IRB approved informed consent document and HIPAA authorization for Oocyte Donation with Elagolix for Ovulation Suppression Protocol. 3. Oocyte donor begins oral contraceptives to lead into ovarian stimulation. 4. Oocyte donor discontinues oral contraceptives after 10 to 14 days of administration. 5. 3 days after discontinuing oral contraceptives, oocyte donor begins daily SQ injections of rFSH with the dose based upon age, follicle stimulating hormone (FSH), antimullerian hormone (AMH) and antral follicular count. 6. On day 4 of rFSH medications, the practitioner obtains an estradiol level from an oocyte donor. The rFSH dose will be adjusted as necessary. 7. At 2 to 3 days intervals of medications, the practitioner obtains an estradiol level and performs a transvaginal ultrasound for oocyte donor; an rFSH dose will be adjusted according to the results of the estradiol level and transvaginal ultrasound. 8. Once a 14 mm lead follicle is noted on the ultrasound, the practitioner administers 20 U per day of SQ hCG along with Elagolix 200 mg PO QD, taken at 10 pm. Elagolix is administered for a minimum of 1 day and a maximum of 6 days. 9. Administration of Elagolix 200 mg PO QD is discontinued 24 hours prior to the ovulatory, GnRH agonist trigger. 10. Ovarian stimulation is continued as outlined until oocyte maturity is reached based on follicular number, follicular size, cycle day and estradiol levels, at which time an ovulatory, GnRH agonist was used to induce ovulation and egg retrieval was performed per protocol. All mature eggs are either fertilized with the intended parent's sperm or cryopreserved for future used in egg donation.

[2] = oral administration; cited from earlier work
GnRH receptor [3] = target: T1, GnRH receptor; details: cited from earlier work

SMILES	premature ovulation (GnRH receptor [1])	Avg. Peak Estradiol (GnRH receptor [1])	Avg. Peak LH (GnRH receptor [1])	Avg. Peak Progesterone (GnRH receptor [1])	Days of Stimulation (GnRH receptor [1])	Avg. Matures Oocytes (GnRH receptor [1])	Avg. Oocytes (GnRH receptor [1])	Avg. Cum GN Dose (GnRH receptor [1])	estimated half-life (t1/2) [2] [h]	median time of maximum plasma concentration (Tmax) [2] [h]	LH levels (GnRH receptor [3]; 4 hours after administration of a single dose)	time for LH concentrations to rebound to about baseline levels or above (GnRH receptor [3]; after the last dose, all dose levels) [h]	anovulatory concentrations (GnRH receptor [3]; all participants at doses of 100 mg BID or higher, maintained throughout the 7-day study with daily dosing)	estradiol concentration at maximum suppression (GnRH receptor [3]; all participants at doses of 200 mg BID and higher) [pg/mL]	estradiol remaining partially suppressed (GnRH receptor [3]; at 24 hours, most groups)	safety profile (GnRH receptor [3]; doses up to 400 mg twice per day (BID))	adverse events (GnRH receptor [3]; healthy premenopausal women)	tolerability (GnRH receptor [3]; healthy premenopausal women)	dose giving maximum inhibition of LH (GnRH receptor [3]; more sustained suppression at higher doses) [mg BID]
CCN=C(NCC)NCCCC[C@H](NC(=O)[C@H](CC(C)C)NC(=O)[C@@H](CCCCNC(=NCC)NCC)NC(=O)[C@H](Cc1ccc(O)cc1)NC(=O)[C@H](CO)NC(=O)[C@@H](Cc1cccnc1)NC(=O)[C@@H](Cc1ccc(Cl)cc1)NC(=O)[C@@H](Cc1ccc2ccccc2c1)NC(C)=O)C(=O)N1CCC[C@H]1C(=O)N[C@H](C)C(N)=O [Ganirelix] (Ac-[d2Nal][dPhe(4-Cl)][d3Pal]SY[d(hArg(Et2))]L[hArg(Et2)]P[dA]-NH2)	no instances of premature ovulation	3764	1.3	2.3	10.06	25.42	30.55	2741	–	–	–	–	–	–	–	–	–	–	–
COc1cccc(-c2c(C)n(Cc3c(F)cccc3C(F)(F)F)c(=O)n(C[C@H](NCCCC(=O)[O-])c3ccccc3)c2=O)c1F.[Na+] [Elagolix, 4-((R)-2-[5-(2-fluoro-3-methoxy-phenyl)-3-(2-fluoro-6-trifluoromethyl-benzyl)-4-methyl-2,6-dioxo-3,6-dihydro-2H-pyrimidin-1-yl]-1-phenyl-ethylamino)-butyric acid sodium salt]	no instances of premature ovulation	3959	0.94	1.9	10.49	24.73	30.31	2855	4 to 6	0.5 to 1	22-35 % baseline	24 to 48	Anovulatory concentrations were observed in all participants	~11.8	42-65 % of baseline	acceptable safety profile	No clinically significant adverse events occurred	well tolerated	≥ 200
